Measured values as given in article PMC4052532, “Biodistribution and SPECT Imaging Study of ^99mTc Labeling NGR Peptide in Nude Mice Bearing Human HepG2 Hepatoma” (BioMed Research International, 2014).
Read-outs that look alike come from different tables or passages of the source. Where a SMILES comes first, the peptide text is derived from it. Bridges are numbered along the chain shown (N, C = ends).

Columns and labels:
[1] = In vitro stability in mouse serum (radio-TLC); type: in vitro ADME; conditions: 37°C, 12 h incubation, percentage of parent tracer by radio-TLC, read-out: ^99mTc-NGR peptide remained intact
Description: (§1) The stability of ^99mTc-labeled NGR peptide in PBS and mouse serum at 37°C was studied at 1, 3, 6, and 12 h. Then the percentage of parent tracer was determined by radio-TLC (Table 1).

[2] = In vitro stability in PBS (radio-TLC); type: physicochemical; conditions: PBS pH 7.4, 37°C, 12 h incubation, percentage of parent tracer by radio-TLC
Description: as §1

[3] = tested on: HepG2 cells; test: Cell uptake study; type: cell-based, human; conditions: 37°C, ~370 kBq/well, gamma counter, n = 3, mean ± SD
Description: HepG2 cells were seeded into 48-well plates at a density of 2 × 10^5 cells per well 24 h prior to the experiment. HepG2 cells were then incubated with ^99mTc-labeled NGR peptides (~370 kBq/well) at 37°C for 15, 30, 60, 120, and 240 min. After incubation, tumor cells were washed three times with ice cold PBS and harvested by trypsinization with 0.25% trypsin/0.02% EDTA (Hyclone, USA). Cell suspensions were collected and measured in a gamma counter (Zhida, Shannxi, China). Cell uptake data was presented as percentage of total input radioactivity added to the culture medium after decay correction. Experiments were performed twice with triplicate wells.

[4] = Biodistribution studies; type: in vivo; conditions: female, BALB/c nude, mouse, total radioactivity; for tissue uptake at 1 h / tissue uptake at 4 h / tissue uptake at 8 h / tissue uptake at 12 h: n = 5, mean ± SD; for tissue uptake at 4 h: 4 h postinjection; for tissue uptake at 8 h: 8 h postinjection; for tissue uptake at 12 h: 12 h postinjection
Description: HepG2 cells were grown in high glucose DMEM culture medium. All cell lines were cultured in medium supplemented with 10% (v/v) fetal bovine serum (Gibco, USA), 1% mycillin, and 1% Glutamine (Beyotime, China) at 37°C in a humidified atmosphere with 5% CO2. Using female BALB/c nude mice (4–6 weeks of age), HepG2 tumor model was established by subcutaneous injection of 2 × 10^6 HepG2 tumor cells (0.1 mL) into the right upper flanks. When the tumor volume reached 0.8~1.0 cm in diameter (2-3 weeks after inoculation), the tumor-bearing mice were used for SPECT imaging and biodistribution studies. All animal studies were approved by Clinical Center at the FMMU.
Nude mice bearing human HepG2 hepatoma were randomly divided into 5 groups and injected with ~7.4 MBq of ^99mTc-NGR with or without excess unlabelled NGR peptide (20 mg/kg). After injection of the tracer, mice were sacrificed and dissected. The radioactivity in the HepG2 tumor, major organs, and muscle were collected and weighed wet with tubes (%ID/g). Mean uptake (%ID/g) for a group of animals was calculated with standard deviations. Values were expressed as mean ± SD (n = 5/group).

[5] = blood, iv, ~7.4 MBq i.v., read-out: Blood uptake
[6] = heart, iv, ~7.4 MBq i.v., read-out: Heart uptake
[7] = intestine, iv, ~7.4 MBq i.v., read-out: Intestine uptake
[8] = iv, HepG2 tumor, ~7.4 MBq i.v., read-out: Tumor uptake
[9] = kidney, iv, ~7.4 MBq i.v., read-out: Kidney uptake
[10] = liver, iv, ~7.4 MBq i.v., read-out: Liver uptake
[11] = lung, iv, ~7.4 MBq i.v., read-out: Lung uptake
[12] = muscle, iv, ~7.4 MBq i.v., read-out: Muscle uptake
[13] = spleen, iv, ~7.4 MBq i.v., read-out: Spleen uptake
[14] = stomach, iv, ~7.4 MBq i.v., read-out: Stomach uptake

SMILES: N=C(N)NCCC[C@@H]1NC(=O)CNC(=O)[C@H](CC(N)=O)NC(=O)[C@@H](NC(=O)CNC(=O)CNC(=O)[C@@H](N)Cc2ccc(O)cc2)CSSC[C@@H](C(=O)O)NC1=O [^99mTc-NGR, metal not drawn] (H-YGGCNGRC-OH; disulfide 4-8)
- remaining at 12 h [1]: ~92%
- ^99mTc-NGR peptide remained intact [2]: ~92%
- uptake in HepG2 cells (percentage of total input radioactivity) ([3]; 15 min): about 0.49 ± 0.05%
- uptake in HepG2 cells (percentage of total input radioactivity) ([3]; 2 h (maximum)): 1.52 ± 0.13%
- uptake in HepG2 cells (percentage of total input radioactivity) ([3]; 4 h): About 1.35 ± 0.27%
- tissue uptake at 1 h ([4]; blood, iv, 1 h postinjection, ~7.4 MBq i.v., read-out: Blood uptake): 3.82 ± 0.41 %ID/g
- tissue uptake at 4 h [4, 5]: 1.75 ± 0.39 %ID/g
- tissue uptake at 8 h [4, 5]: 0.98 ± 0.22 %ID/g
- tissue uptake at 12 h [4, 5]: 0.75 ± 0.31 %ID/g
- tissue uptake at 1 h ([4]; blood, iv, Blocking (1 h), coinjection of unlabelled NGR 20 mg/kg, read-out: Blood uptake): 2.56 ± 0.34 %ID/g
- tissue uptake at 1 h ([4]; heart, iv, 1 h postinjection, ~7.4 MBq i.v., read-out: Heart uptake): 3.74 ± 0.54 %ID/g
- tissue uptake at 4 h [4, 6]: 2.26 ± 0.33 %ID/g
- tissue uptake at 8 h [4, 6]: 1.15 ± 0.32 %ID/g
- tissue uptake at 12 h [4, 6]: 1.07 ± 0.25 %ID/g
- tissue uptake at 1 h ([4]; heart, iv, Blocking (1 h), coinjection of unlabelled NGR 20 mg/kg, read-out: Heart uptake): 2.73 ± 0.29 %ID/g
- tissue uptake at 1 h ([4]; intestine, iv, 1 h postinjection, ~7.4 MBq i.v., read-out: Intestine uptake): 2.65 ± 1.06 %ID/g
- tissue uptake at 4 h [4, 7]: 2.18 ± 0.96 %ID/g
- tissue uptake at 8 h [4, 7]: 1.93 ± 0.22 %ID/g
- tissue uptake at 12 h [4, 7]: 1.6 ± 0.27 %ID/g
- tissue uptake at 1 h ([4]; intestine, iv, Blocking (1 h), coinjection of unlabelled NGR 20 mg/kg, read-out: Intestine uptake): 2.4 ± 0.59 %ID/g
- tissue uptake at 1 h ([4]; iv, HepG2 tumor, 1 h postinjection, ~7.4 MBq i.v., read-out: Tumor uptake): 2.52 ± 0.83 %ID/g
- tissue uptake at 4 h [4, 8]: 3.03 ± 0.71 %ID/g
- tissue uptake at 8 h [4, 8]: 3.26 ± 0.63 %ID/g
- tissue uptake at 12 h [4, 8]: 2.81 ± 0.25 %ID/g
- tissue uptake at 1 h ([4]; iv, HepG2 tumor, Blocking (1 h), coinjection of unlabelled NGR 20 mg/kg, read-out: Tumor uptake): 1.65 ± 0.61 %ID/g
- tissue uptake at 1 h ([4]; kidney, iv, 1 h postinjection, ~7.4 MBq i.v., read-out: Kidney uptake): 7.93 ± 2.13 %ID/g
- tissue uptake at 4 h [4, 9]: 7.03 ± 0.95 %ID/g
- tissue uptake at 8 h [4, 9]: 6.21 ± 0.43 %ID/g
- tissue uptake at 12 h [4, 9]: 5.96 ± 0.41 %ID/g
- tissue uptake at 1 h ([4]; kidney, Blocking (1 h), coinjection of unlabelled NGR 20 mg/kg, read-out: Kidney uptake): 5.03 ± 0.97 %ID/g
- tissue uptake at 1 h ([4]; liver, iv, 1 h postinjection, ~7.4 MBq i.v., read-out: Liver uptake): 4.07 ± 0.76 %ID/g
- tissue uptake at 4 h [4, 10]: 3.85 ± 0.73 %ID/g
- tissue uptake at 8 h [4, 10]: 3.44 ± 0.52 %ID/g
- tissue uptake at 12 h [4, 10]: 3.26 ± 0.47 %ID/g
- tissue uptake at 1 h ([4]; liver, Blocking (1 h), coinjection of unlabelled NGR 20 mg/kg, read-out: Liver uptake): 3.27 ± 0.16 %ID/g
- tissue uptake at 4 h [4, 11]: 2.13 ± 0.44 %ID/g
- tissue uptake at 8 h [4, 11]: 1.86 ± 0.38 %ID/g
- tissue uptake at 12 h [4, 11]: 1.21 ± 0.31 %ID/g
- tissue uptake at 1 h ([4]; lung, iv, Blocking (1 h), coinjection of unlabelled NGR 20 mg/kg, read-out: Lung uptake): 2.04 ± 0.28 %ID/g
- tissue uptake at 1 h ([4]; muscle, iv, 1 h postinjection, ~7.4 MBq i.v., read-out: Muscle uptake): 0.53 ± 0.33 %ID/g
- tissue uptake at 4 h [4, 12]: 0.46 ± 0.11 %ID/g
- tissue uptake at 8 h [4, 12]: 0.43 ± 0.14 %ID/g
- tissue uptake at 12 h [4, 12]: 0.39 ± 0.22 %ID/g
- tissue uptake at 1 h ([4]; muscle, iv, Blocking (1 h), coinjection of unlabelled NGR 20 mg/kg, read-out: Muscle uptake): 0.48 ± 0.27 %ID/g
- tissue uptake at 1 h ([4]; spleen, iv, 1 h postinjection, ~7.4 MBq i.v., read-out: Spleen uptake): 2.37 ± 0.43 %ID/g
- tissue uptake at 4 h [4, 13]: 2.09 ± 0.6 %ID/g
- tissue uptake at 8 h [4, 13]: 1.88 ± 0.42 %ID/g
- tissue uptake at 12 h [4, 13]: 1.72 ± 0.37 %ID/g
- tissue uptake at 1 h ([4]; spleen, Blocking (1 h), coinjection of unlabelled NGR 20 mg/kg, read-out: Spleen uptake): 1.89 ± 0.22 %ID/g
- tissue uptake at 1 h ([4]; stomach, iv, 1 h postinjection, ~7.4 MBq i.v., read-out: Stomach uptake): 3.07 ± 0.56 %ID/g
- tissue uptake at 4 h [4, 14]: 2.2 ± 0.26 %ID/g
- tissue uptake at 8 h [4, 14]: 1.61 ± 0.39 %ID/g
- tissue uptake at 12 h [4, 14]: 1.56 ± 0.32 %ID/g
- tissue uptake at 1 h ([4]; stomach, Blocking (1 h), coinjection of unlabelled NGR 20 mg/kg, read-out: Stomach uptake): 3.41 ± 0.31 %ID/g
- tissue to tissue ratio at 1 h ([4]; tumor/kidney, iv, 7.4 MBq, 1 h postinjection, read-out: Tumor-to-normal tissue uptake ratio T/K): 0.32 ± 0.15
- tissue to tissue ratio at 1 h ([4]; tumor/liver, iv, 7.4 MBq, 1 h postinjection, read-out: Tumor-to-normal tissue uptake ratio T/L): 0.62 ± 0.33
- tissue to tissue ratio at 1 h ([4]; tumor/muscle, iv, 7.4 MBq, 1 h postinjection, read-out: Tumor-to-normal tissue uptake ratio T/M): 4.75 ± 0.91
- tissue to tissue ratio at 8 h ([4]; tumor/muscle, iv, 7.4 MBq, 8 h (highest value), read-out: tumor/muscle (T/NT) value): 7.58 ± 1.92
